Measured values taken from US20250122192A1, “5-PYRIMIDINECARBOXAMIDE DERIVATIVES AND METHODS OF USING THE SAME” (Rgenta Therapeutics, Inc., priority 2021, published 2025).
Where a name gives a salt, the structure may show the parent alone. Read-outs that look alike come from different tables or passages of the source.

Test system: PMS1
Assay: Mini-gene reporter assay-PMS1
Assay type: cell-based
Conditions: Homo sapiens
Summary of the method: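 Compound dilution series in duplicate added to transiently transfected HEK293 reporter cells, then incubated; EC50 from Levenberg-Marquardt fit of luminescence. The reporter joins the alternatively skipped exon, its neighbouring introns and exons to firefly luciferase, so induced inclusion gives more signal.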

[1] = HEK293, PMS1 mini-gene firefly luciferase reporter transiently transfected into HEK293 cells, read-out: PMS1 IC50

Row | IC50 [1] | SMILES | further results
1 | < 500 nM | CCOc1nc(N2CCCC3CNCCC32)ncc1C(=O)Nc1cn2cc(C)nc2c(C)n1 (stereo not shown) [Compound 49] | –
2 | 1000 to 3000 nM | CCOc1nc(N2CC(C)NCC2C)ncc1C(=O)Nc1cn2cc(C)nc2c(C)n1 (stereo not shown) [Compound 32] | –
3 | 500 to 1000 nM | CCOc1nc(N2CCN[C@H](C)C2)ncc1C(=O)Nc1cc(F)c2nc(C)cn2c1 [Compound 3, 4-ethoxy-N-{8-fluoro-2-methylimidazo[1,2-a]pyridin-6-yl}-2-[(3R)-3-methylpiperazin-1-yl]pyrimidine-5-carboxamide] | –
4 | < 500 nM | CCOc1nc(N2CCC(C3CCCN3)C2)ncc1C(=O)Nc1cc(F)c2nc(C)cn2c1 (stereo not shown) [Compound 120] | –
5 | < 500 nM | CCOc1nc(N2C[C@@H]3CCCN[C@@H]3C2)ncc1C(=O)Nc1cc(F)c2nc(C)cn2c1 [Compound 197] | –
6 | < 500 nM | CCOc1nc(N2CCC(NC)C2)ncc1C(=O)Nc1cn2cc(C)nc2c(C)n1 (stereo not shown) [Compound 99] | –
7 | – | CCOc1nc(N2CC3(CCN3)C2)ncc1C(=O)Nc1cn2cc(C)nc2c(C)n1 [Compound 24] | activation at 5 µM (at 5 μM, PMS1 mini-gene firefly luciferase reporter in HEK293 cells, read-out: PMS1% Effect at 5 μM): 50 to 75%
8 | < 500 nM | CCOc1nc(N(C)C2CCCNC2)ncc1C(=O)Nc1cc(F)c2nc(C)cn2c1 (stereo not shown) [Compound 244] | –
9 | 1000 to 3000 nM | CCOc1nc(N(C)C2CCCCNC2)ncc1C(=O)Nc1cc(F)c2nc(C)cn2c1 (stereo not shown) [Compound 138] | –
10 | 500 to 1000 nM | CCOc1nc(N2CC(C3CCNCC3)C2)ncc1C(=O)Nc1cc(F)c2nc(C)cn2c1 [Compound 141] | –
11 | 1000 to 3000 nM | CCOc1nc(N2CC3CNCC3C2)ncc1C(=O)Nc1cn2cc(C)nc2cn1 (stereo not shown) [Compound 28, 4-ethoxy-N-{2-methylimidazo[1,2-a]pyrazin-6-yl}-2-{octahydropyrrolo[3,4-c]pyrrol-2-yl}pyrimidine-5-carboxamide] | –
12 | > 3000 nM | CCOc1nc(N2CCN(CC)CC2)ncc1C(=O)Nc1cc(F)c2nn(C)cc2c1 [Compound 252, 4-ethoxy-2-(4-ethylpiperazin-1-yl)-N-(7-fluoro-2-methyl-2H-indazol-5-yl)pyrimidine-5-carboxamide hydrochloride] | –
13 | 500 to 1000 nM | CCOc1nc(N2CC[C@H]3CN[C@H]3C2)ncc1C(=O)Nc1cc(F)c2nc(C)cn2c1 (racemic) [Compound 169] | –
14 | < 500 nM | CCOc1nc(N2CC3CNCC3C2)ncc1C(=O)Nc1cc(F)c2nc(C)oc2c1 (stereo not shown) [Compound 14, 4-ethoxy-N-(4-fluoro-2-methyl-1,3-benzoxazol-6-yl)-2-{octahydropyrrolo[3,4-c]pyrrol-2-yl}pyrimidine-5-carboxamide] | –
15 | 1000 to 3000 nM | CCOc1nc(N2CCO[C@H]3CNC[C@H]32)ncc1C(=O)Nc1cc(F)c2nc(C)cn2c1 (racemic) [Compound 177] | –
16 | < 500 nM | CCOc1nc(N2CCNC(C)CC2)ncc1C(=O)Nc1cc(F)c2nc(C)cn2c1 (stereo not shown) [Compound 191] | –
17 | < 500 nM | CCOc1nc(N2CCN[C@@H](C(C)C)C2)ncc1C(=O)Nc1cc(F)c2nc(C)cn2c1 [Compound 226] | –
18 | 500 to 1000 nM | CCOc1nc(N2CCCC(NC)C2)ncc1C(=O)Nc1cc(F)c2nc(C)cn2c1 (stereo not shown) [Compound 232] | –
19 | – | CCOc1nc(N2CCNCC2)ncc1C(=O)Nc1cc(F)c2nc(C)cn2c1 [Compound 2, 4-ethoxy-N-{8-fluoro-2-methylimidazo[1,2-a]pyridin-6-yl}-2-(piperazin-1-yl)pyrimidine-5-carboxamide] | IC50 (HEK293, read-out: PMS1 IC50 (nM)): < 500 nM
20 | 500 to 1000 nM | CCOc1nc(N2CCNCC2)ncc1C(=O)Nc1cc(OC)c2nc(C)cn2c1 [Compound 27, 4-ethoxy-N-{8-methoxy-2-methylimidazo[1,2-a]pyridin-6-yl}-2-(piperazin-1-yl)pyrimidine-5-carboxamide] | –
21 | < 500 nM | CCOc1nc(N2CCC3(CCNCC3)C2)ncc1C(=O)Nc1cc(F)c2nc(C)cn2c1 [Compound 219] | –
22 | 500 to 1000 nM | CCOc1nc(N2CCC(C3NCC34CCC4)CC2)ncc1C(=O)Nc1cc(F)c2nc(C)cn2c1 (stereo not shown) [Compound 133] | –
23 | 1000 to 3000 nM | CCOc1nc(N2CCC(N3CCNCC3)C2)ncc1C(=O)Nc1cc(F)c2nc(C)cn2c1 (stereo not shown) [Compound 107] | –
24 | > 3000 nM | CCOc1nc(N2CC3(CCNCC3)CC2C)ncc1C(=O)Nc1cn2cc(C)nc2c(C)n1 (stereo not shown) [Compound 68] | –
25 | 1000 to 3000 nM | CCOc1nc(N2CC[C@H](NC)C2)ncc1C(=O)Nc1ccc2nn(C)cc2c1 [Compound 285, (S)-4-ethoxy-N-(2-methyl-2H-indazol-5-yl)-2-(3-(methylamino)pyrrolidin-1-yl)pyrimidine-5-carboxamide 2,2,2-trifluoroacetate] | –
26 | 1000 to 3000 nM | CCOc1nc(N2CCCNCC2)ncc1C(=O)Nc1cn2cc(C)nc2c(C)n1 [Compound 103] | –
27 | < 500 nM | CCOc1nc(N(C)C2CCNC2)ncc1C(=O)Nc1cc(F)c2nc(C)cn2c1 (stereo not shown) [Compound 238] | –

Row | IC50 [1] | SMILES | further results
28 | < 500 nM | CCOc1nc(N(C)[C@H]2CCCNC2)ncc1C(=O)Nc1cc(F)c2nc(C)cn2c1 [Compound 163] | –
29 | < 500 nM | CCOc1nc(N2CCC(NC)C2)ncc1C(=O)Nc1cc(OC)c2nn(C)cc2c1 (stereo not shown) [Compound 278, 4-ethoxy-N-(7-methoxy-2-methyl-2H-indazol-5-yl)-2-(3-(methylamino)pyrrolidin-1-yl)pyrimidine-5-carboxamide formate] | –
30 | 1000 to 3000 nM | CCOc1nc(N2CCNC(CC(F)F)C2)ncc1C(=O)Nc1cc(F)c2nc(C)cn2c1 (stereo not shown) [Compound 110] | –
31 | > 3000 nM | CCOc1nc(N2CC(N3CCNCC3)C2)ncc1C(=O)Nc1cc(F)c2nc(C)cn2c1 [Compound 218] | –
32 | < 500 nM | CCOc1nc(N2CCNC(C)C2C)ncc1C(=O)Nc1cc(F)c2nc(C)cn2c1 (stereo not shown) [Compound 213] | –
33 | > 3000 nM | CCOc1nc(N(C)CC2CCNCC2)ncc1C(=O)Nc1cc(F)c2nc(C)cn2c1 [Compound 237] | –
34 | > 3000 nM | CCOc1nc(N2CC(NC)C2)ncc1C(=O)Nc1cc(F)c2nn(C)cc2c1 [Compound 254, 4-ethoxy-N-(7-fluoro-2-methyl-2H-indazol-5-yl)-2-(3-(methylamino)azetidin-1-yl)pyrimidine-5-carboxamide hydrochloride] | –
35 | 500 to 1000 nM | CCOc1nc(N2CCN[C@H]3CC[C@H]32)ncc1C(=O)Nc1cn2cc(C)nc2c(C)n1 (racemic) [Compound 101] | –
36 | 1000 to 3000 nM | CCOc1nc(N2CC(CO)C3(CNC3)C2)ncc1C(=O)Nc1cc(F)c2nc(C)cn2c1 (stereo not shown) [Compound 165] | –
37 | < 500 nM | CCOc1nc(N2CCC(C3CCCN3)CC2)ncc1C(=O)Nc1cc(F)c2nc(C)cn2c1 (stereo not shown) [Compound 203] | –
38 | < 500 nM | CCOc1nc(N2C[C@H]3CNCC[C@H]32)ncc1C(=O)Nc1cn2cc(C)nc2c(C)n1 (racemic) [Compound 95] | –
39 | > 3000 nM | CCOc1nc(N2CCOC3(CNC3)C2)ncc1C(=O)Nc1cc(F)c2nc(C)cn2c1 [Compound 144] | –
40 | < 500 nM | COc1nc(N2CC3CNCC3C2)ncc1C(=O)Nc1cn2cc(C)nc2c(C)n1 (stereo not shown) [Compound 22, N-{2,8-dimethylimidazo[1,2-a]pyrazin-6-yl}-4-methoxy-2-{octahydropyrrolo[3,4-c]pyrrol-2-yl}pyrimidine-5-carboxamide] | –
41 | < 500 nM | CCOc1nc(N2CCC3(CCNCC3)CC2)ncc1C(=O)Nc1cc(F)c2nc(C)cn2c1 [Compound 207] | –
42 | > 3000 nM | CCOc1nc(N2CCNCC2)ncc1C(=O)Nc1cn2cc(C)nc2c(C)n1 [Compound 16, N-{2,8-dimethylimidazo[1,2-a]pyrazin-6-yl}-4-ethoxy-2-(piperazin-1-yl)pyrimidine-5-carboxamide] | –
43 | > 3000 nM | CCOc1nc(N2CCCC(C3CCCCN3)C2)ncc1C(=O)Nc1cn2cc(C)nc2c(C)n1 (stereo not shown) [Compound 34] | –
44 | 500 to 1000 nM | CCOc1nc(N2CCC3(CC2)CNCCO3)ncc1C(=O)Nc1cc(F)c2nc(C)cn2c1 [Compound 204] | –
45 | 500 to 1000 nM | CCOc1nc(N2CCCC(C3CCCNC3)C2)ncc1C(=O)Nc1cc(F)c2nc(C)cn2c1 (stereo not shown) [Compound 184] | –
46 | < 500 nM | CCOc1nc(N2CC[C@@H]3NCCC[C@@H]3C2)ncc1C(=O)Nc1cc(F)c2nc(C)cn2c1 (racemic) [Compound 139] | –
47 | 1000 to 3000 nM | CCOc1nc(N2CCC(C3CNC3)CC2)ncc1C(=O)Nc1cc(F)c2nc(C)cn2c1 [Compound 142] | –
48 | 500 to 1000 nM | CCOc1nc(N2CC(C)CNC(C)C2)ncc1C(=O)Nc1cc(F)c2nc(C)cn2c1 (stereo not shown) [Compound 131] | –
49 | < 500 nM | CCOc1nc(N2C[C@@H](C)N[C@@H](C)C2)ncc1C(=O)Nc1cc(F)c2nc(C)cn2c1 [Compound 231] | –
50 | 1000 to 3000 nM | CCOc1nc(N2CC3(CCCNC3)C2)ncc1C(=O)Nc1cn2cc(C)nc2c(C)n1 [Compound 87] | –
51 | < 500 nM | CCOc1nc(N2CCC3(CNC3)C2)ncc1C(=O)Nc1cc(F)c2nc(C)cn2c1 [Compound 220] | –
52 | > 3000 nM | CCOc1nc(N2CC(NC)C2)ncc1C(=O)Nc1cn2cc(C)nc2c(C)n1 [Compound 43] | –
53 | 1000 to 3000 nM | CCOc1nc(N2CCNCC2)ncc1C(=O)Nc1cc2cn(C)nc2c(F)c1C [Compound 307, 4-ethoxy-N-(7-fluoro-2,6-dimethyl-2H-indazol-5-yl)-2-(piperazin-1-yl)pyrimidine-5-carboxamide hydrochloride] | –
54 | < 500 nM | CCOc1nc(N2C[C@@H]3CNC[C@]3(C)C2)ncc1C(=O)Nc1cn2cc(C)nc2c(C)n1 (racemic) [Compound 98] | –

Row | SMILES | IC50 [1] | further results
55 | CCOc1nc(N(C)C2CCNCC2)ncc1C(=O)Nc1cc(F)c2nn(C)cc2c1 [Compound 275, 4-ethoxy-N-(7-fluoro-2-methyl-2H-indazol-5-yl)-2-(methyl(piperidin-4-yl)amino) pyrimidine-5-carboxamide formate] | < 500 nM | –
56 | CCOc1nc(N2C3CCC2CC(NC)C3)ncc1C(=O)Nc1cc(F)c2nc(C)cn2c1 (stereo not shown) [Compound 157] | < 500 nM | –
57 | CCOc1nc(N(C)C2CC3CCC(C2)N3)ncc1C(=O)Nc1cn2cc(C)nc2c(C)n1 (stereo not shown) [Compound 37] | < 500 nM | –
58 | CCOc1nc(N(CC)C2CCNCC2)ncc1C(=O)Nc1cn2cc(C)nc2cn1 [Compound 267, 4-ethoxy-2-(ethyl(piperidin-4-yl)amino)-N-(2-methylimidazo[1,2-a]pyrazin-6-yl)pyrimidine-5-carboxamide formic acid] | 500 to 1000 nM | –
